Usually CC50 stands for the concentration that lowers cell viability or growth by half. A higher CC50 goes with better tolerance by the cells. In general, IC50 refers to the concentration at which inhibition is half-maximal.

This passage reports CC50 and IC50 results from patent US20160303095A1, “METHODS OF TREATING HEPATITIS B VIRUS” (Gilead Sciences, Inc., priority 2015, published 2016).

Series [1] can be described thus: Alamar Blue cell viability assay. The class given is cell-based. As to conditions: human; D 28; PHH donor 8181; virus 21p. On the technique in general: Alamar Blue is a resazurin reagent that responds to reducing activity.
For a further series, the target named is T1, KDM4A (Homo sapiens, UniProt O75164).
T1 construct: host or cells: Sf9 cells
T1 sequence (O75164 1-1064): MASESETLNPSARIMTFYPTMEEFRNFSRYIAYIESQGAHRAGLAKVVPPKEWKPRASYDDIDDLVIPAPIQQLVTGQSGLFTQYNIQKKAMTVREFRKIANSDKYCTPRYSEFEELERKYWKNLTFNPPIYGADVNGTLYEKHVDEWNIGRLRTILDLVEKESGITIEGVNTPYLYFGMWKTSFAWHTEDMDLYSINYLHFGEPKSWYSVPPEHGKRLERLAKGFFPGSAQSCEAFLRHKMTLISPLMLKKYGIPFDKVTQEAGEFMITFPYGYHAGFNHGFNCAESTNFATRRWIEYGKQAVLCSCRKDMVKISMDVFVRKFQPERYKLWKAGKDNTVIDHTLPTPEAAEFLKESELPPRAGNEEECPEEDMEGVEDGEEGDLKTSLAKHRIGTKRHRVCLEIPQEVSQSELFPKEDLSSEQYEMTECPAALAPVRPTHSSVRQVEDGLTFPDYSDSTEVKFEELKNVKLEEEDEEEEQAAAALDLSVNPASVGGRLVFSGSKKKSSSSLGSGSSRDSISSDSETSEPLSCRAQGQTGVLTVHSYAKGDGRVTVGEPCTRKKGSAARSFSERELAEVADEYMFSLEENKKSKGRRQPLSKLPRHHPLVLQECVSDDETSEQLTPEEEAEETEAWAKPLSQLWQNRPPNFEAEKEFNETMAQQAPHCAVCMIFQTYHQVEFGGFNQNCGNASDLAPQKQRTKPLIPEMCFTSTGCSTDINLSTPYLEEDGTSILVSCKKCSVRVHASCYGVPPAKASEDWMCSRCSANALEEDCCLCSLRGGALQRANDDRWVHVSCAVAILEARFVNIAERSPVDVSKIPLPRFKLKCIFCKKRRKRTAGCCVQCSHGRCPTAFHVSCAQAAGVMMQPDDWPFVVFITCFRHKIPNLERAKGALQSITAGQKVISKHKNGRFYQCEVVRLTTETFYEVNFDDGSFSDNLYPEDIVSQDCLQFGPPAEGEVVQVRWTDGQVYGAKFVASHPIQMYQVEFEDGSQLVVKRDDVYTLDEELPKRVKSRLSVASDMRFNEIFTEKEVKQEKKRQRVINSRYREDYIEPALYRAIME
Put plainly: Biochemical KDM inhibition assay (LANCE), KDM4A. The settings on record: read-out: Biochemical IC50 KDM 4A.

The next series addresses T2, KDM2A (Homo sapiens, UniProt Q9Y2K7).
T2 construct: host or cells: Sf9 cells
T2 sequence (Q9Y2K7 1-1162): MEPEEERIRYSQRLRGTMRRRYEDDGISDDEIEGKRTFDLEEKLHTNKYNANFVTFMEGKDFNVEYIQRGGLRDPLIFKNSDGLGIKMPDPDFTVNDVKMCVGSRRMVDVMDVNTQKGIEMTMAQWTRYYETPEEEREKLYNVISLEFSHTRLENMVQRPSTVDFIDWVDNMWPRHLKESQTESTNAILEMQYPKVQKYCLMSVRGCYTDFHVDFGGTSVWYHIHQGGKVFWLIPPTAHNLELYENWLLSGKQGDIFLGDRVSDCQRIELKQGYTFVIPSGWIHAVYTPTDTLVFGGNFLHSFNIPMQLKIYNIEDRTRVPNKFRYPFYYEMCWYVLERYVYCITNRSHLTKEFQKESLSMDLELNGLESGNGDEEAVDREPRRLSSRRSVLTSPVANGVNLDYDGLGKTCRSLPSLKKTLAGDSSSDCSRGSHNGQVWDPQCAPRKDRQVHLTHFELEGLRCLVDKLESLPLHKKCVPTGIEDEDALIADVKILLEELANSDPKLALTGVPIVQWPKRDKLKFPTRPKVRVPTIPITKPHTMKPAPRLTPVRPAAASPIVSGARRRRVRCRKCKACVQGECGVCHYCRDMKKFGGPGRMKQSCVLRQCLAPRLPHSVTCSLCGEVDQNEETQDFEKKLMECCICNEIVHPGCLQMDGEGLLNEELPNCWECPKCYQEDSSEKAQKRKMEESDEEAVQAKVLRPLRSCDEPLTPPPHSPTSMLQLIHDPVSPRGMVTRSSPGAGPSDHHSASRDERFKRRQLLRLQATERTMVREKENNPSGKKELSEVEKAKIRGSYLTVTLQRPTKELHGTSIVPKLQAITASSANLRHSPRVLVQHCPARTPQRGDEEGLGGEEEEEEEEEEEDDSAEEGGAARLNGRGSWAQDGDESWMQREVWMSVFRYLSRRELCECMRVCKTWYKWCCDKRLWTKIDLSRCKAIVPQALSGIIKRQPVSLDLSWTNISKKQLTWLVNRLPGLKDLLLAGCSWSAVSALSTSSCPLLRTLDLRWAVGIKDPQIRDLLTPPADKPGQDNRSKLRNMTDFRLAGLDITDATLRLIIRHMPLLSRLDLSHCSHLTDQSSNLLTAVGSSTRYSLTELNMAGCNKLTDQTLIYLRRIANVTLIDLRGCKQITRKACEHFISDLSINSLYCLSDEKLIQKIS
Put plainly: Biochemical KDM inhibition assay (LANCE), KDM2A. The settings on record: read-out: Biochemical IC50 KDM 2A. As for the experimental part:
Representative compounds were characterized for their inhibition of KDM5 using biotinylated histone substrates. Inhibition was measured in vitro (CEREP Poitier, Le Bois l'Evêque, France) following experimental conditions described in Table 2. Briefly, the test compound, reference compound or water (control) was mixed with about 2-20 ng of recombinant, Human enzymes expressed in Sf9 cells in a buffer containing 45 mM Hepes/Tris (pH 7), 5 μM FAS, 100 μM ascorbic acid, 10 μM 2-oxoglutarate, 0.01% Tween 20 and 0.01% BSA. Thereafter, the reaction was initiated by adding the biotin-labeled substrate, and the mixture was incubated for 10-30 min at room temperature. For basal control measurements, the enzyme was omitted from the reaction mixture. Following incubation the reaction was stopped by adding 1 mM EDTA. After 5 min, the anti-methyl histone antibody labeled with europium chelate and the Ulight streptavidine (Perkin Elmer Waltham, Mass.) were added. After 60 min more, the fluorescence transfer was measured at λex=320 nm and λem=620 and λem=665 nm using a microplate reader (Envision, Perkin Elmer) (LANCE). The enzyme activity was determined by dividing the signal measured at λem=665 nm by that measured at 620 nm (ratio).

Where only a bound is given, the exact number is not on record here.

With `CCN(CCN(C)C)C(=O)CNCc1cc(C(=O)O)ccn1` [Example 9], the half-maximal cytotoxic concentration (CC50) at 28 day in series [1] was more than 100000 nM. Besides, the IC50 on KDM4A stood at 350 nM; on KDM2A it was 650 nM.
On to `CCN(CC)CCCCNCc1cc(C(=O)O)ccn1` [Example 18], for which the IC50 on KDM4A amounted to 390 nM; at KDM2A, 2000 nM.
With `Nc1c(C(=O)O)ccnc1C(=O)O` [Example 7, reference compound], in series [1], the CC50 at 28 day was more than 50000 nM. Moreover, the IC50 at KDM4A amounted to 490 nM; on KDM2A, 360 nM.
Consider `CCOC(=O)c1ccnc(CNCC(=O)N(CC)CCN(C)C)c1` [Example 8], for which it took 20000 nM to reach half-maximal cytotoxicity in series [1] (CC50 at 28 day).
For `Cc1cc(Cl)ccc1COc1ccnn1-c1cc(C(=O)O)ccn1` [Example 11], the IC50 on KDM4A amounted to 1000 nM; on KDM2A it was 450 nM.
In the case of `O=C(O)c1ccncc1Nc1nn(CCN2CCC(F)(F)CC2)c2ccc(F)cc12` [Example 13], the IC50 at KDM4A amounted to 1100 nM; on KDM2A it was 510 nM.
